Results taken from US6451576B1, “Sesquiterpene synthases from grand fir (Abies grandis), and methods of use” (Washington State University Research Foundation, priority 1998, dated 2002).

T1: γ-humulene synthase (SEQ ID No:24) (Abies grandis, UniProt O64405)
T1 construct: For further subcloning of the amplified, full-length cDNA into the pSBETa vector for high-level expression, the pGAG5 insert was amplified; made in house; host or cells: E. coli XL1-Blue/pGAG5 or E. coli BL21(DE3)/pSBAG5
T1 sequence (O64405 1-593): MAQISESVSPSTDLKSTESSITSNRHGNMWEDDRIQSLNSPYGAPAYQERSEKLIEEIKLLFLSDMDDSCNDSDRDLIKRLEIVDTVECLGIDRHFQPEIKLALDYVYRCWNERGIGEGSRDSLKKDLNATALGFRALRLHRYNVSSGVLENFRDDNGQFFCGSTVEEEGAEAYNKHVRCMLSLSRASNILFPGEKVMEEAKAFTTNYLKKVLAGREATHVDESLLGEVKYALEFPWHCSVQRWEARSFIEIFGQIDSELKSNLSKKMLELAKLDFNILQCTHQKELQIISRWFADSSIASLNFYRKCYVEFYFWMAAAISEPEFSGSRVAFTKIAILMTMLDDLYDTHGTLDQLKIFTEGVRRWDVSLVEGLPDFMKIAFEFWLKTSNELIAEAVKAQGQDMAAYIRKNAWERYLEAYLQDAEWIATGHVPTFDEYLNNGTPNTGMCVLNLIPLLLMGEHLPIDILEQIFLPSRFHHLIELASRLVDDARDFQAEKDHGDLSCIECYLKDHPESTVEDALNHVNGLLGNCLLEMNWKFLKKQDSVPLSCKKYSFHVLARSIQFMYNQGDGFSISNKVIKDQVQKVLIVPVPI

T2: δ-selinene synthase (SEQ ID No:20) (Abies grandis, UniProt O64404)
T2 construct: made in house; host or cells: E. coli XL1-Blue/pGAG4 or E. coli BL21(DE3)/pSBAG4
T2 sequence (O64404 1-581): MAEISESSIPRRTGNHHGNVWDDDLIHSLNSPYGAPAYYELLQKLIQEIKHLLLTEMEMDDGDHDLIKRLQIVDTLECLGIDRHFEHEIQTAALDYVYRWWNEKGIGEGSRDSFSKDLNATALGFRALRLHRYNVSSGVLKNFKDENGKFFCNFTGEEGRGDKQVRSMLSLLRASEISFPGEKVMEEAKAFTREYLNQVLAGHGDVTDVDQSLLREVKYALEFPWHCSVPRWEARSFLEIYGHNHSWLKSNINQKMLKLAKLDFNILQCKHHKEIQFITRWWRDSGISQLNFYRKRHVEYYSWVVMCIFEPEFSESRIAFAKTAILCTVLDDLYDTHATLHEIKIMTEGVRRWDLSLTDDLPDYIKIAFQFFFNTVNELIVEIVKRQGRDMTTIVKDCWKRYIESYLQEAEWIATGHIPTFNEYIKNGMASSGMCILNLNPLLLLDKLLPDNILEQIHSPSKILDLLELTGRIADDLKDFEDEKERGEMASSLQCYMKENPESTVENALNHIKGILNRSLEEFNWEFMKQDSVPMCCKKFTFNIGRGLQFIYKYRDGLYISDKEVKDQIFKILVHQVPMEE

T3: δ-Selinene Synthase (ag4) (SEQ ID No. 20) (Abies grandis, UniProt O64404)
T3 construct: made in house; host or cells: E. coli XL1-Blue/pGAG4 or E. coli BL21(DE3)/pSBAG4
T3 sequence (O64404 1-581): T2 sequence (O64404 1-581)

T4: γ-Humulene Synthase (ag5) (SEQ ID No: 24) (Abies grandis, UniProt O64405)
T4 construct: For further subcloning of the amplified, full-length cDNA into the pSBETa vector for high-level expression, the pGAG5 insert was amplified; made in house; host or cells: E. coli XL1-Blue/pGAG5 or E. coli BL21(DE3)/pSBAG5
T4 sequence (O64405 1-593): T1 sequence (O64405 1-593)

B1: γ-humulene synthase (SEQ ID No:24) (Abies grandis) (protein)
chain: T1 sequence (O64405 1-593)
notes: For further subcloning of the amplified, full-length cDNA into the pSBETa vector for high-level expression, the pGAG5 insert was amplified; made in house; host or cells: E. coli XL1-Blue/pGAG5 or E. coli BL21(DE3)/pSBAG5

Tests used:
[1] = biological target: T1, γ-humulene synthase (SEQ ID No:24); experiment: Kinetic parameters, metal ion requirement and substrate specificity of recombinant γ-humulene synthase; type: biochemical; settings: for monoterpene product formed from geranyl diphosphate: GLC-MS; for Km: read-out: Km value for divalent metal ion
Method: (§1) The assay for recombinant sesquiterpene synthase (cyclase) activity was performed in 1 ml of buffer (extraction buffer without MnCl2 or the polymeric adsorbents) containing 3.5 μM [1-^3H]farnesyl diphosphate and the total protein extracted from a 5 ml bacterial culture to produce 10^5-10^6 dpm of product in 2 h at 31° C. The incubation mixture was overlaid with 1 ml pentane to trap volatile products. After incubation, the reaction mixture was extracted with pentane (3×1 ml) and the combined extract was passed through a MgSO4-silica gel column to provide the terpene hydrocarbon fractions as before. The columns were subsequently eluted with 3×1 ml of ether to collect any oxygenated products, and an aliquot of each fraction was taken for liquid scintillation counting to determine conversion rate. The monoterpene synthase and diterpene synthase activity assays were similarly performed as described in detail elsewhere (LaFever, R. E., et al., (1994) Arch. Biochem. Biophys. 313, 139-149; Bohlmann, J., et al., (1997) J. Biol. Chem. 272, 21784-21792; Lewinsohn, E., et al., (1991) Plant Physiol. 96, 38-43).
(§2) The substrate specificity and other kinetic. parameters of γ-humulene synthase (SEQ ID No:24) and δ-selinene synthase (SEQ ID No:20) were investigated in order to confirm the identification and classification of these enzymes. […] Neither of these sesquiterpene synthases requires K^+ or other monovalent cation for activity.
(§3) Substrate specificity of δ-selinene synthase (SEQ ID No:20) and γ-humulene synthase (SEQ ID No:24) was evaluated by comparing farnesyl diphosphate (C15) to geranyl diphosphate (C10) and geranylgeranyl diphosphate (C20) at saturation as precursors of the respective terpene olefins. […] The identities of the monoterpene products produced by the sesquiterpene synthases were determined by GLC-MS and are set forth in FIG. 4.

[2] = biological target: T2, δ-selinene synthase (SEQ ID No:20); experiment: Kinetic parameters, metal ion requirement and substrate specificity of recombinant δ-selinene synthase; type: biochemical; settings: for Km: read-out: Km value for divalent metal ion
Method: as §1, §2, §3

[3] = biological target: T3, δ-Selinene Synthase (ag4) (SEQ ID No. 20); experiment: Product profile of recombinant δ-selinene synthase in vitro (preparative assay, GLC-MS); type: biochemical; settings: from [1-3H]farnesyl diphosphate; total ion current chromatogram
Method: (§4) For preparative incubations, the assay was scaled to 5 ml containing the total protein extracted from 100 ml of bacterial culture and 30 μM [1-^3H]farnesyl diphosphate, and the incubation time was extended to 8 h. Aliquots of the olefin fraction and the fraction containing oxygenated metabolites (diethyl ether eluate) were evaluated by liquid scintillation counting, and were analyzed by radio-GLC (Croteau, R. & Cane. D. E. (1985) Methods Enzymol. 110, 383-405; Satterwhite, D. M. & Croteau, R. (1988) J. Chromatogr. 452, 61-73) using a Gow-Mac 550P chromatograph that was equipped with a 3.18 mm×3.66 m stainless steel column packed with 5% OV17 (50% phenyl:50% methylsiloxane) on 100/120 mesh Gas Chrom Q (Alltech) and programmed from 150° C. to 220° C. at 2° C./min with He as carrier. The elution of co-injected standards was monitored with the Gow-Mac thermal conductivity detector (250° C. and 150 mA) and the radioactivity signal was continuously monitored with a Nuclear Chicago Model 8731 gas proportional counter; output data were processed using Perkin-Elmer Turbochrom Software.
(§5) Expression of Sesquiterpene Synthase cDNAs AG4 (SEQ ID No:19) and AG5. (SEQ ID No:23) in E. coli. Both putative sesquiterpene cyclase cDNAs (SEQ ID Nos:19 and 23) were expressed in bacterial strains E. coli XL1-Blue/pGAG4, E. coli XL1-Blue/pGAG5, E. coli BL21(DE3)/pSBAG4, and E. coli BL21(DE3)/pSBAG5 as set forth in EXAMPLE 7. Bacteria were grown to A600=0.5 at 37° C. in 5 ml or 100 ml of LB medium supplemented with 100 μg ampicillin/ml or 30 μg kanamycin/ml as determined by the vector. Cultures were then induced by addition of 1 mM isopropyl-1-thio-β-D-galactopyranoside and grown for another 12 h at 20° C. Cells were harvested by centrifugation (2000×g, 10 min) and resuspended in either 1 ml or 5 ml sesquiterpene synthase assay buffer (EXAMPLE 2). Cells were disrupted by sonication (Braun-Sonic 2000 with microprobe at maximum power for 15 seconds at 0-4° C.) and the homogenates were cleared by centrifugation (18,000×g, 10 min). Preparative assays were employed to generate product for GLC-MS analysis, as set forth in EXAMPLE 2, with quantification of composition via the total ion current chromatogram.
Product Profile of Recombinant δ-Selinene Synthase (SEQ ID No:20) In Vitro.

[4] = biological target: T4, γ-Humulene Synthase (ag5) (SEQ ID No: 24); experiment: Product profile of recombinant γ-humulene synthase in vitro (preparative assay, GLC-MS); type: biochemical; settings: from [1-3H]farnesyl diphosphate; total ion current chromatogram
Method: as §4, §5
Product Profile of Recombinant γ-Humulene Synthase (SEQ ID No:24) In Vitro.

[5] = substrate: CC(C)=CCC/C(C)=C/CC/C(C)=C/CO[P@@](=O)(O)OP(=O)(O)O; experiment: Kinetic parameters, metal ion requirement and substrate specificity of recombinant γ-humulene synthase; type: biochemical, Abies grandis; settings: other: γ-humulene synthase; estimated; 31.0 °C
Method: as §1, with “The monoterpene synthase and diterpene synthase activity assays were similarly performed as described in detail elsewhere (LaFever, R. E., et al., (1994) Arch. Biochem. Biophys. 313, 139-149; Bohlmann, J., et al., (1997) J. Biol. Chem. 272, 21784-21792; Lewinsohn, E., et al., (1991) Plant Physiol. 96, 38-43).” left out
as §3

Molecule	sesquiterpene products of δ-selinene synthase, % [3] [%]	sesquiterpene products of γ-humulene synthase, % [4] [%]	other results
C=C1C2CCC(C2)C1(C)C (stereo not drawn) [camphene]	–	–	monoterpene product formed from geranyl diphosphate [1]: detectable amounts; monoterpene product formed from geranyl diphosphate ([2]; GLC-MS): does not produce
CC1=CC[C@H]2[C@H]3[C@@H]1[C@]2(C)CC[C@H]3C(C)C [α-Copaene]	0.1	0.1	–
CC1=CC[C@@H]2[C@H]3[C@H](C(C)C)CC[C@]2(C)[C@@H]13 [α-Ylangene]	0.1	2.7	–
CC(C)=C1C/C=C(\C)CC/C=C(\C)CC1 [Z-E-Germacrene B (tent.), Z,E-Germacrene B]	1.3	0.1	–
C=C/C(C)=C/CC=C(C)C [E-ocimene]	–	–	monoterpene product formed from geranyl diphosphate [1]: not detectable; contribution to monoterpene products formed from geranyl diphosphate ([2]; GLC-MS): 22.4%
[Mn+2] [Mn^2+]	–	–	metal ion utilization in the cyclization reaction [1]: comparable velocities; Km [1]: ~25 µM; maximum rate relative to that with Mg2+ at saturation [2]: less than 10%; Km [2]: ~25 µM
CC1=CC2C(CC1)C(C)=CCC2C(C)C (stereo not drawn) [α-Amorphene]	2.7	0.5	–
C=C(CCC=C(C)C)[C@@H]1CC=C(C)CC1 [β-Bisabolene]	0.7	3.9	–
[Mg+2] [Mg^2+]	–	–	metal ion utilization in the cyclization reaction [1]: comparable velocities; Km [1]: ~125 µM; Km [2]: ~125 µM
C=C1CCCC2(C)CCC(C(C)C)=CC12 (stereo not drawn) [Sibirene]	0.7	15.1	–
CC1=C[C@H]2C(=C(C)CC[C@H]2C(C)C)CC1 [δ-Amorphene]	6.4	0.5	–
C=C(C)[C@@H]1C/C=C(\C)CC/C=C(\C)CC1 [Germacrene A]	6.7	–	–
CC1=C[C@@H]2[C@@H](CC1)C(C)=CC[C@H]2C(C)C [α-Cadinene]	0.2	–	–
C=C(C)[C@H]1CC=C(C)CC1 [Limonene]	–	–	monoterpene product formed from geranyl diphosphate [1]: principal monoterpene product; monoterpene product formed from geranyl diphosphate ([2]; GLC-MS): principal monoterpene product
B1	–	–	Km [5]: 4.5 µM
